Measured values taken from patent US12522597B2, “Methods and compositions for modulating splicing” (Skyhawk Therapeutics, Inc., priority 2019, dated 2026).
pEC50: −log10 of the molar value. Where two headings read alike, the source gives them in different places.

Legend:
[1] = tested on: Huntingtin (HTT) transcripts; assay: Quantitative splicing assay (HTT), qPCR; type: cell-based; details: Homo sapiens, GM04724 (CAG 70/20) Huntington's disease patient lymphoblasts, 24 h
Procedure: GM04724 (CAG 70/20) Huntington's disease patient lymphoblasts (Coriell) are plated in 96-wel v-bottom plates at 50,000 cells/well. Immediately after plating, cells are dosed with compound for 24 h at concentrations ranging from 2.5 uM to 0.15 nM (0.1% DMSO). Treated cells are lysed and cDNA synthesized using the Fast Advanced Cells-to-Ct kit (Thermofisher A35378) according to the manufacturer's instructions. 2 uL of each cDNA are used in qPCR reactions to confirm the compound-induced inclusion of a cryptic exon within intron 49 of the Huntingtin (HTT) transcripts. The qPCR reactions are prepared in 384-well plates in 10 uL volume, using TaqMan™ Fast Advanced Master Mix [ThermoFisher; 4444965] with primers and probes shown in the table below. Reactions are run in a Quant Studio 6 qPCR instrument with default settings.

mHTT protein = mHTT protein assay (2B7-MW1, Mesoscale Discovery); type: cell-based, human; details: GM04724 (CAG 70/20) Huntington's disease patient lymphoblast cells, 48 hours, 2B7-MW1 MSD; read-out: HTT Potency - Protein EC50 mHTT (average)
Procedure, shortened: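 GM04724 Huntington's patient lymphoblasts (CAG 70/20) were treated for 48 h at 10 μM to 0.6 nM. mHTT was quantified by 2B7-MW1 MSD immunoassay, whose signal depends on polyQ expansion and HTT fragment size. Viability was run on a parallel plate by CellTiter-Glo.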

[2] = tested on: MDR1-MDCK cell monolayers; assay: MDCK-MDR1 permeability assay (BBB penetration potential); type: in vitro ADME; details: dog, MDCK-MDR1, 120 min, 5 μM, pH 7.4
Procedure: (§1) Each determination is performed in duplicate. […] Analytical conditions are outlined below.

MDR1 = assay: as above; type: in vitro ADME; details: dog; for efflux ratio at 120 min, 5 μM: MDCK-MDR1, pH 7.4, MDCK-MDR1: Efflux; for Papp A→B at 120 min, 5 μM: MDCK-MDR1, pH 7.4, MDCK-MDR1: Papp A-B; for Papp B→A at 120 min, 5 μM: MDCK-MDR1, pH 7.4, MDCK-MDR1: Papp B-A
Procedure: as §1

[3] = qPCR HTTex49_50, read-out: HTT Potency - Splicing: E49-50 EC50 (average)
[4] = qPCR cryptic exon 49b inclusion, read-out: HTT Potency - Splicing: E49b EC50 (average)

Compound	pEC50 [1, 3]	pEC50 [1, 4]	pEC50 (mHTT protein)	MDCK-MDR1: % Recov A-B [2] [%]	MDCK-MDR1: % Recov B-A [2] [%]	efflux ratio at 120 min, 5 μM (MDR1)	Papp A→B at 120 min, 5 μM (MDR1) [×10⁻⁶ cm/s]	Papp B→A at 120 min, 5 μM (MDR1) [×10⁻⁶ cm/s]
Oc1cc(-c2cn[nH]c2)ccc1-c1ccc(O[C@@H]2C[C@H]3CC[C@H](N3)[C@@H]2F)nn1 (single isomer, unassigned) [42-ENT2]	7.82 to 11.00	7.82 to 11.00	7.82 to 11.00	85	86	12	3.2	38.5
Cn1cc(-c2cc(O)c(-c3ccc(O[C@@H]4C[C@H]5CCC[C@H](N5)[C@@H]4F)nn3)cn2)cn1 (single isomer, unassigned) [64-ENT1]	5.00 to 6.30	5.00 to 6.30	5.00 to 6.30	99	101	68	0.18	12.4
O=c1cc(-c2ccc(-c3ccc(O[C@@H]4C[C@H]5CCC[C@H](N5)[C@@H]4F)nn3)c(O)c2)cc[nH]1 (single isomer, unassigned) [53-ENT1]	6.30 to 7.00	6.30 to 7.00	6.30 to 7.00	91	90	103	0.22	22.2
Oc1cc(-c2cn[nH]c2)c(F)cc1-c1ccc(O[C@H]2C[C@@H]3CCC[C@@H](N3)[C@H]2F)nn1 (single isomer, unassigned) [56-ENT2]	7.82 to 11.00	7.82 to 11.00	7.82 to 11.00	68	79	13	2.69	36
Cc1ncc(-c2ccc(-c3ccc(O[C@@H]4C[C@H]5CCC[C@H](N5)[C@@H]4F)nn3)c(O)c2)s1 (single isomer, unassigned) [96-ENT1]	7.30 to 7.80	7.30 to 7.80	7.30 to 7.80	39	72	2	7.37	15.2
Cn1cc(-c2ccc(-c3ccc(O[C@H]4C[C@@H]5COC[C@@H](N5)[C@H]4F)nn3)c(O)c2)cn1 (single isomer, unassigned) [124-ENT2]	–	–	5.00 to 6.30	86	89	3	16.9	43.5
Oc1cc2ncccc2cc1-c1ccc(O[C@H]2C[C@@H]3CCC[C@@H](N3)[C@H]2F)nn1 (single isomer, unassigned) [103-ENT2]	–	–	5.00 to 6.30	98	106	12	5.15	59.9
Oc1cc(-n2ccnn2)ccc1-c1ccc(O[C@H]2C[C@@H]3CCC[C@@H](N3)[C@H]2F)nn1 (single isomer, unassigned) [69-ENT2]	–	–	6.30 to 7.00	86	93	5	10.7	55.9
N#Cc1ccc(-c2ccc(O[C@H]3C[C@@H]4CCC[C@@H](N4)[C@H]3F)nn2)c(O)c1 (single isomer, unassigned) [110-ENT2]	–	–	5.00 to 6.30	95	97	8	7.44	56.9
Oc1cc(-n2ccnc2)ccc1-c1ccc(O[C@H]2C[C@@H]3CC(F)(F)[C@H](C2)N3)nn1 (single isomer, unassigned) [51-ENT2]	–	–	5.00 to 6.30	86	90	2	25.8	46.7
Oc1cc(-c2ccc3nncn3c2)ccc1-c1ccc(O[C@@H]2C[C@H]3CCC[C@H](N3)[C@@H]2F)nn1 (single isomer, unassigned) [73-ENT1]	–	–	6.30 to 7.00	94	85	92	0.44	40.9
Cn1cnc(-c2ccc(-c3ccc(O[C@@H]4C[C@H]5CCC[C@H](N5)[C@@H]4F)nn3)c(O)c2)cc1=O (single isomer, unassigned) [138-ENT1]	–	–	7.00 to 7.29	86	98	47	1.14	53.9
CNC(=O)c1ccc2cc(-c3ccc(O[C@H]4C[C@]5(C)CCC[C@@](C)(N5)[C@H]4F)nn3)c(O)cc2n1 (single isomer, unassigned) [137-ENT1]	–	–	7.82 to 11.00	58	70	16	2.56	40.1
Cc1cncc(-c2ccc(-c3ccc(O[C@@H]4C[C@H]5CCC[C@H](N5)[C@@H]4F)nn3)c(O)c2)c1 (single isomer, unassigned) [89-ENT1]	–	–	5.00 to 6.30	68	76	6	6.05	33.8
Cn1ccc(=O)c2cc(O)c(-c3ccc(O[C@H]4C[C@]5(C)CCC[C@@](C)(N5)[C@H]4F)nn3)cc21 (stereo in doubt) [132-ENT2, 7-(6-(((1R,2R,3S,5S)-2-fluoro-1,5-dimethyl-9-azabicyclo[3.3.1]nonan-3-yl)oxy)pyridazin-3-yl)-6-hydroxy-1-methylquinolin-4(1H)-one]	–	–	6.30 to 7.00	93	95	126	0.11	13.4
Oc1cc(-n2ccnn2)ccc1-c1ccc(O[C@@H]2C[C@H]3CCC[C@H](N3)[C@@H]2F)nn1 (single isomer, unassigned) [69-ENT1]	–	–	6.30 to 7.00	89	93	5	9.2	47.6
Cn1ccc(-c2ccc(-c3ccc(O[C@@H]4C[C@H]5CCC[C@H](N5)[C@@H]4F)nn3)c(O)c2)nc1=O (single isomer, unassigned) [107-ENT1]	–	–	6.30 to 7.00	90	90	90	0.11	10
C[C@]12CCC[C@](C)(N1)[C@H](F)[C@H](Oc1ccc(-c3ccc(C#N)cc3O)nn1)C2 (single isomer, unassigned) [145-ENT1]	–	–	5.00 to 6.30	82	87	4	9.39	42
